We go through 37 molecules from patent publication US20130310384A1, “Sulfonamide-Containing Compounds” (THE BRIGHAM AND WOMEN'S HOSPITAL, INC., priority 2010, published 2013).

Each structure is given as a SMILES string.

Turning to `CC[C@@H](c1ccccc1)N(Cc1ccc(S(C)(=O)=O)cc1)S(=O)(=O)c1ccc(Cl)cc1` [Example 2, (S)-4-Chloro-N-(4-(methylsulfonyl)benzyl)-N-(1phenylpropyl)benzenesulfonamide], the melting point (commonly the temperature, or range, at which the solid turns liquid) lay in the range of 61 to 63 °C.

On to `CC[C@@H](c1ccccc1)N(Cc1ccc(C(=O)O)c(F)c1F)S(=O)(=O)c1ccc(Cl)cc1` [Example 127, (S)-4-((4-Chloro-N-(1-phenylpropyl)phenylsulfonamido)methyl)-2,3-difluorobenzoic acid], for which the melting point fell in the range of 127 to 129 °C.

Consider `CC(C)N(Cc1ccc(Cl)c(Cl)c1)S(=O)(=O)c1cc2ccccc2s1` [Example 48, N-(3,4-Dichlorobenzyl)-N-isopropylbenzo[b]thiophene-2-sulfonamide], for which the melting point is 133 to 135 °C.

`CCC(CC)N(Cc1ccc(S(C)(=O)=O)cc1)S(=O)(=O)c1ccc(Cl)cc1` [Example 31, 4-Chloro-N-(4-(methylsulfonyl)benzyl)-N-(pentan-3-yl)benzenesulfonamide] had a melting point of 166 to 168 °C.

`CC[C@@H](c1ccccc1)N(Cc1ccc(C(=O)OC)cc1)S(=O)(=O)c1ccc(Cl)cc1` [Example 3, (S)-Methyl 4-((4-chloro-N-(1-phenylpropyl)phenylsulfonamido)methyl)benzoate] showed a melting point of 108 to 110 °C.

In turn, `CCC(CC)N(Cc1ccc(C(=O)OC)cc1)S(=O)(=O)c1ccc(C)cc1` [Example 35, Methyl 4-((4-methyl-N-(pentan-3-yl)phenylsulfonamido)methyl)benzoate] registered a melting point of 106 to 108 °C.

`CCC(CC)N(Cc1ccc(C#N)cc1)S(=O)(=O)c1ccc(Cl)cc1` [Example 33, 4-Chloro-N-(4-cyanobenzyl)-N-(pentan-3-yl)benzenesulfonamide] returned a melting point of 123 to 125 °C.

With `COC(=O)c1cc(CN([C@@H](CO)c2ccccc2)S(=O)(=O)c2ccc(Cl)cc2)ccc1OC` [Example 133, (R)-Methyl 5-((4-chloro-N-(2-hydroxy-1-phenylethyl)phenylsulfonamido)methyl)-2-methoxybenzoate], the melting point lay in the range of 60 to 62 °C.

In turn, `CCC(c1ccccn1)N(Cc1ccc(C(=O)OC)cc1)S(=O)(=O)c1ccc(F)cc1` (stereo not shown) [Example 26, Methyl 4-((4-fluoro-N-(1-(pyridin-2-yl)propyl)phenylsulfonamido)methyl)benzoate] displayed a melting point of 82 to 84 °C.

Take `CC[C@@H](c1ccc(C(F)(F)F)cc1)N(Cc1ccc(C(=O)O)cc1)S(=O)(=O)c1ccc(Cl)cc1` [Example 125, (S)-4-((4-Chloro-N-(1-(4-(trifluoromethyl)phenyl)propyl)phenylsulfonamido)methyl)benzoic acid]: the melting point is 101 to 103 °C.

In turn, `CC[C@@H](c1ccccc1)N(Cc1ccc(C(=O)OC)cc1)S(=O)(=O)c1ccc(F)c(F)c1` [Example 115, (S)-Methyl 4-((3,4-difluoro-N-(1-phenylpropyl)phenylsulfonamido)methyl)benzoate] yielded a melting point of 103 to 105 °C.

In turn, `COC(=O)c1ccc(CN([C@@H](CO)c2ccccc2)S(=O)(=O)c2ccc(Cl)cc2)cc1` [Example 7, (R)-Methyl 4-((4-chloro-N-(2-hydroxy-1-phenylethyl)phenylsulfonamido)methyl)benzoate] had a melting point of 104 to 106 °C.

`CC[C@@H](c1ccccc1)N(Cc1ccc(C(=O)NCC(=O)O)cc1)S(=O)(=O)c1ccc(Cl)cc1` [Example 64, (S)-2-(4-((4-Chloro-N-(1-phenylpropyl)phenylsulfonamido)methyl)benzamido)acetic acid] showed a melting point of 136 to 139 °C.

For the molecule `O=C(O)c1ccc(CN(C(CO)CO)S(=O)(=O)c2ccc(Cl)s2)cc1` [Example 53, 4-((5-Chloro-N-(1,3-dihydroxypropan-2-yl)thiophene-2-sulfonamido)methyl)benzoic acid], the melting point was 163 to 165 °C.

Molecule `CCC(CC)N(Cc1ccc(C(=O)OC)cc1)S(=O)(=O)c1ccc(F)cc1` [Example 32, Methyl 4-((4-fluoro-N-(pentan-3-yl)phenylsulfonamido)methyl)benzoate] registered a melting point of 78 to 80 °C.

Take `CC[C@@H](c1ccccc1)N(Cc1ccc(C(=O)OC)cc1)S(=O)(=O)c1ccc(C(F)(F)F)cc1` [Example 18, (S)-Methyl 4-((N-(1-phenylpropyl)-4-(trifluoromethyl)phenylsulfonamido)methyl)benzoate]: the melting point was in the range of 70 to 72 °C.

The molecule `CCC(c1ccccc1)N(Cc1ccc(C(=O)OC)cc1)S(=O)(=O)c1ccc(Cl)cc1` (stereo not shown) [Example 25, Methyl 4-((4-chloro-N-(1-phenylpropyl)phenylsulfonamido)methyl)benzoate] returned a melting point of 105 to 107 °C.

As for `CCC(c1ccc(F)cc1)N(Cc1ccc(C(=O)OC)cc1)S(=O)(=O)c1ccc(Cl)cc1` (stereo not shown) [Example 30, Methyl 4-((4-chloro-N-(1-(4-fluorophenyl)propyl)phenylsulfonamido)methyl)benzoate], the melting point lay within 95 to 97 °C.

As to `COC(=O)c1ccc(CN(C(C)C)S(=O)(=O)c2ccc(Cl)cc2)cc1` [Example 44, Methyl 4-((4-chloro-N-isopropylphenylsulfonamido)methyl)benzoate], the melting point lay in the range of 110 to 112 °C.

`CC[C@@H](c1ccccc1)N(Cc1ccc(C(=O)O)cc1OC)S(=O)(=O)c1ccc(Cl)cc1` [Example 23, (S)-4-((4-Chloro-N-(1-phenylpropyl)phenylsulfonamido)methyl)-3-methoxybenzoic acid] returned a melting point of 176 to 178 °C.

In turn, `CC[C@@H](c1ccccc1)N(Cc1ccc(C(=O)OC)cc1)S(=O)(=O)c1ccc(Cl)c(Cl)c1` [Example 114, (S)-Methyl 4-((3,4-dichloro-N-(1-phenylpropyl)phenylsulfonamido)methyl)benzoate] returned a melting point of 98 to 99 °C.

In the case of `CC[C@@H](c1ccc(C#N)cc1)N(Cc1ccc(C#N)cc1)S(=O)(=O)c1ccc(Cl)cc1` [Example 84, (S)-4-Chloro-N-(4-cyanobenzyl)-N-(1-(4-cyanophenyl)propyl)benzenesulfonamide], the melting point was in the range of 120 to 121 °C.

`CC[C@@H](c1ccccc1)N(Cc1ccc(C(=O)O)cc1F)S(=O)(=O)c1ccc(Cl)cc1` [Example 52, (S)-4-((4-Chloro-N-(1-phenylpropyl)phenylsulfonamido)methyl)-3-fluorobenzoic acid] returned a melting point of 118 to 120 °C.

Regarding `COC(=O)c1ccc(CN([C@@H](C)c2ccccc2)S(=O)(=O)c2ccc(Cl)cc2)cc1` [Example 12, (S)-Methyl 4-((4-chloro-N-(1-phenylethyl)phenylsulfonamido)methyl)benzoate], the melting point lay in the range of 105 to 106 °C.

`CCC(c1ccc(Cl)nc1)N(Cc1ccc(C(=O)O)cc1)S(=O)(=O)c1ccc(Cl)cc1` (stereo not shown) [Example 89, 4-((4-Chloro-N-(1-(6-chloropyridin-3-yl)propyl)phenylsulfonamido)methyl)benzoic acid] returned a melting point of 111 to 113 °C.

`CCC(CC)N(Cc1ccc(C#N)nc1)S(=O)(=O)c1ccc(Cl)cc1` [Example 72]: the melting point lay in the range of 108 to 110 °C.

With `CC[C@@H](c1ccccc1)N(Cc1ccc(C(=O)OC)c(F)c1F)S(=O)(=O)c1ccc(Cl)cc1` [Example 124, (S)-Methyl 4-((4-chloro-N-(1-phenylpropyl)phenylsulfonamido)methyl)-2,3-difluorobenzoate], the melting point lay in the range of 87 to 89 °C.

`COC(=O)c1ccc(CN(C(CO)CO)S(=O)(=O)c2ccc(Cl)s2)cc1` [Example 42, Methyl 4-((5-chloro-N-(1,3-dihydroxypropan-2-yl)thiophene-2-sulfonamido)methyl)benzoate] displayed a melting point of 134 to 135 °C.

Regarding `CC[C@@H](c1ccccc1)N(Cc1cccc(C(=O)O)c1)S(=O)(=O)c1ccc(Cl)cc1` [Example 59, (S)-3-((4-Chloro-N-(1-phenylpropyl)phenylsulfonamido)methyl)benzoic acid], the melting point fell in the range of 65 to 67 °C.

For the molecule `CCC(c1ccc(C(F)(F)F)cc1)N(Cc1ccc(C(=O)O)cc1)S(=O)(=O)c1ccc(Cl)cc1` (stereo not shown) [Example 54, 4-((4-Chloro-N-(1-(4-(trifluoromethyl)phenyl)propyl)phenylsulfonamido)methyl)benzoic acid], the melting point lay in the range of 108 to 110 °C.

Take `COC(=O)c1ccc(CN(C(CF)CF)S(=O)(=O)c2ccc(F)cc2)cc1` [Example 41]: the melting point is 103 to 105 °C.

The molecule `CC[C@@H](c1ccccc1)N(Cc1ccc(C(=O)N2CCC[C@@H]2CO)cc1)S(=O)(=O)c1ccc(Cl)cc1` [Example 104, 4-Chloro-N-(4-((R)-2-(hydroxymethyl)pyrrolidine-1-carbonyl)benzyl)-N-((S)-1-phenylpropyl)benzenesulfonamide] returned a melting point of 120 to 121 °C.

`CCC(CC)N(Cc1ccc(C#N)cc1F)S(=O)(=O)c1ccc(F)cc1` [Example 36, N-(4-Cyano-2-fluorobenzyl)-4-fluoro-N-(pentan-3-yl)benzenesulfonamide] returned a melting point of 102 to 104 °C.

On to `COC(=O)c1ccc(CN([C@@H](CO)Cc2ccccc2)S(=O)(=O)c2ccc(Cl)cc2)cc1` [Example 94, (R)-Methyl 4-((4-chloro-N-(1-hydroxy-3-phenylpropan-2-yl)phenylsulfonamido)-methyl)benzoate], for which the melting point lay within 128 to 130 °C.

In the case of `CCC(CC)N(Cc1ccc(C#N)nc1)S(=O)(=O)c1ccc(F)cc1` [Example 73, N-((6-Cyanopyridin-3-yl)methyl)-4-fluoro-N-(pentan-3-yl)benzenesulfonamide], the melting point lay within 118 to 120 °C.

`CC[C@H](c1ccc(C(F)(F)F)cc1)N(Cc1ccc(C(=O)OC)cc1)S(=O)(=O)c1ccc(Cl)cc1` [Example 123, (R)-Methyl 4-((4-chloro-N-(1-(4-(trifluoromethyl)phenyl)propyl)phenylsulfonamido)methyl)benzoate] displayed a melting point of 120 to 121 °C.

For `COc1ccc(CN([C@@H](CO)c2ccccc2)S(=O)(=O)c2ccc(Cl)cc2)cc1C(=O)O` [Example 134, (R)-5-((4-Chloro-N-(2-hydroxy-1-phenylethyl)phenylsulfonamido)methyl)-2-methoxybenzoic acid], the melting point lay within 79 to 80 °C.
